Experimental data published in patent publication US9822114B2, “Tricyclic oxazolidinone antibiotic compounds” (Idorsia Pharmaceuticals Ltd, priority 2008, dated 2017).
Converted amounts (≈) assume the structure as drawn.

tested on: M. catarrhalis A894; assay: Minimal inhibitory concentration (MIC), microdilution method in cation-adjusted Mueller-Hinton Broth (CLSI M7-A7); type: cell-based; settings: Moraxella catarrhalis, strain A894
Protocol: Minimal inhibitory concentrations (MICs; mg/1) were determined in cation-adjusted Mueller-Hinton Broth by a microdilution method following the description given in “Methods for Dilution Antimicrobial Susceptibility Tests for Bacteria that Grow Aerobically”, Approved standard, 7th ed., Clinical and Laboratory Standards Institute (CLSI) Document M7-A7, Wayne, Pa., USA, 2006.

`O=C1CSc2ccc(N3C[C@@H](CCCN(CCO)[C@@H]4Cn5c(=O)cnc6ccc(F)c4c65)OC3=O)cc2N1` [Example 66, (S)-7-fluoro-6-((2-hydroxy-ethyl)-{3-[(R)-2-oxo-3-(3-oxo-3,4-dihydro-2H-benzo[1,4]thiazin-6-yl)-oxazolidin-5-yl]-propyl}-amino)-5,6-dihydro-pyrrolo[1,2,3-de]quinoxalin-3-one] and `O=C1COc2ccc(N3C[C@@H](CCCN(CCO)[C@@H]4Cn5c(=O)cnc6ccc(F)c4c65)OC3=O)cc2N1` [Example 67, (S)-7-fluoro-6-((2-hydroxy-ethyl)-{3-[(R)-2-oxo-3-(3-oxo-3,4-dihydro-2H-benzo[1,4]oxazin-6-yl)-oxazolidin-5-yl]-propyl}-amino)-5,6-dihydro-pyrrolo[1,2,3-de]quinoxalin-3-one] cannot be ordered by MIC: at most 0.031 µg/mL for the first, at most 0.063 µg/mL for the second.

`O=C1COc2ccc(N3C[C@@H](CCCN[C@@H]4Cn5c(=O)cnc6ccc(F)c4c65)OC3=O)nc2N1` [Example 71, (S)-7-fluoro-6-{3-[(R)-2-oxo-3-(3-oxo-3,4-dihydro-2H-pyrido[3,2-b][1,4]oxazin-6-yl)-oxazolidin-5-yl]-propylamino}-5,6-dihydro-pyrrolo[1,2,3-de]quinoxalin-3-one] and `O=C1COc2ccc(N3C[C@@H](CCCN[C@H]4Cn5c(=O)cnc6cccc4c65)OC3=O)nc2N1` [Example 75, (R)-6-{3-[(R)-2-oxo-3-(3-oxo-3,4-dihydro-2H-pyrido[3,2-b][1,4]oxazin-6-yl)-oxazolidin-5-yl]-propylamino}-5,6-dihydro-pyrrolo[1,2,3-de]quinoxalin-3-one] cannot be ordered by MIC: at most 0.031 µg/mL for the first, at most 0.031 µg/mL for the second.

`O=C1CSc2ccc(N3C[C@@H](CCCN[C@@H]4Cn5c(=O)ccc6cccc4c65)OC3=O)cc2N1` [Example 72, (S)-1-{3-[(R)-2-oxo-3-(3-oxo-3,4-dihydro-2H-benzo[1,4]thiazin-6-yl)-oxazolidin-5-yl]-propylamino}-1,2-dihydro-pyrrolo[3,2,1-ij]quinolin-4-one] and `O=C1CSc2ccc(N3C[C@H](CCCN[C@@H]4Cn5c(=O)ccc6cccc4c65)OC3=O)cc2N1` [Example 85, (S)-1-{3-[(S)-2-oxo-3-(3-oxo-3,4-dihydro-2H-benzo[1,4]thiazin-6-yl)-oxazolidin-5-yl]-propylamino}-1,2-dihydro-pyrrolo[3,2,1-ij]quinolin-4-one] cannot be ordered by MIC: at most 0.031 µg/mL for the first, at most 0.031 µg/mL for the second.

`O=C1COc2ccc(N3C[C@@H](CCCN[C@@H]4Cn5c(=O)ccc6cccc4c65)OC3=O)cc2N1` [Example 73, (S)-1-{3-[(R)-2-oxo-3-(3-oxo-3,4-dihydro-2H-benzo[1,4]oxazin-6-yl)-oxazolidin-5-yl]-propylamino}-1,2-dihydro-pyrrolo[3,2,1-ij]quinolin-4-one] and `O=C1COc2ccc(N3C[C@H](CCCN[C@@H]4Cn5c(=O)ccc6cccc4c65)OC3=O)cc2N1` [Example 86, (S)-1-{3-[(S)-2-oxo-3-(3-oxo-3,4-dihydro-2H-benzo[1,4]oxazin-6-yl)-oxazolidin-5-yl]-propylamino}-1,2-dihydro-pyrrolo[3,2,1-ij]quinolin-4-one] cannot be ordered by MIC: at most 0.031 µg/mL for the first, at most 0.031 µg/mL for the second.

Compared with `O=C1COc2ccc(N3C[C@@H](CCCN[C@@H]4Cn5c(=O)ccc6cccc4c65)OC3=O)nc2N1` [Example 74, (S)-1-{3-[(R)-2-oxo-3-(3-oxo-3,4-dihydro-2H-pyrido[3,2-b][1,4]oxazin-6-yl)-oxazolidin-5-yl]-propylamino}-1,2-dihydro-pyrrolo[3,2,1-ij]quinolin-4-one], `O=C1COc2ccc(N3C[C@H](CCN[C@@H]4Cn5c(=O)ccc6cccc4c65)OC3=O)cc2N1` [Example 89, (S)-1-{2-[(S)-2-oxo-3-(3-oxo-3,4-dihydro-2H-benzo[1,4]oxazin-6-yl)-oxazolidin-5-yl]-ethylamino}-1,2-dihydro-pyrrolo[3,2,1-ij]quinolin-4-one] is higher in MIC: at most 0.031 µg/mL for the first, 0.063 µg/mL (≈ 0.141 µM) for the second.

`O=C1CSc2ccc(N3C[C@@H](CCNC[C@H]4Cn5c(=O)ccc6nccc4c65)OC3=O)cc2N1` [Example 76, (S)-4-({2-[(R)-2-oxo-3-(3-oxo-3,4-dihydro-2H-benzo[1,4]thiazin-6-yl)-oxazolidin-5-yl]-ethylamino}-methyl)-4,5-dihydro-pyrrolo[3,2,1-de][1,5]naphthyridin-7-one] and `O=C1CSc2ccc(N3C[C@H](CCNC[C@H]4Cn5c(=O)ccc6nccc4c65)OC3=O)cc2N1` [Example 77, (S)-4-({2-[(S)-2-oxo-3-(3-oxo-3,4-dihydro-2H-benzo[1,4]thiazin-6-yl)-oxazolidin-5-yl]-ethylamino}-methyl)-4,5-dihydro-pyrrolo[3,2,1-de][1,5]naphthyridin-7-one] cannot be ordered by MIC: at most 0.031 µg/mL for the first, 0.031 µg/mL (≈ 0.0649 µM) for the second.

`O=C1CSc2ccc(N3C[C@H](CCNC[C@@H]4Cn5c(=O)ccc6nccc4c65)OC3=O)cc2N1` [Example 78, (R)-4-({2-[(S)-2-oxo-3-(3-oxo-3,4-dihydro-2H-benzo[1,4]thiazin-6-yl)-oxazolidin-5-yl]-ethylamino}-methyl)-4,5-dihydro-pyrrolo[3,2,1-de][1,5]naphthyridin-7-one] and `O=C1CSc2ccc(N3C[C@@H](CCN[C@@H]4Cn5c(=O)ccc6cccc4c65)OC3=O)cc2N1` [Example 87, (S)-1-{2-[(R)-2-oxo-3-(3-oxo-3,4-dihydro-2H-benzo[1,4]thiazin-6-yl)-oxazolidin-5-yl]-ethylamino}-1,2-dihydro-pyrrolo[3,2,1-ij]quinolin-4-one] cannot be ordered by MIC: at most 0.031 µg/mL for the first, at most 0.031 µg/mL for the second.

`O=C1CSc2ccc(N3C[C@H](CCCN[C@@H]4Cn5c(=O)cnc6ccc(F)c4c65)OC3=O)cc2N1` [Example 79, (S)-7-fluoro-6-{3-[(S)-2-oxo-3-(3-oxo-3,4-dihydro-2H-benzo[1,4]thiazin-6-yl)-oxazolidin-5-yl]-propylamino}-5,6-dihydro-pyrrolo[1,2,3-de]quinoxalin-3-one] and `O=C1CSc2ccc(N3C[C@@H](CCCN[C@H]4Cn5c(=O)cnc6ccc(F)c4c65)OC3=O)cc2N1` [Example 105, (R)-7-fluoro-6-{3-[(R)-2-oxo-3-(3-oxo-3,4-dihydro-2H-benzo[1,4]thiazin-6-yl)-oxazolidin-5-yl]-propylamino}-5,6-dihydro-pyrrolo[1,2,3-de]quinoxalin-3-one] cannot be ordered by MIC: at most 0.031 µg/mL for the first, at most 0.031 µg/mL for the second.

`O=C1COc2ccc(N3C[C@H](CCCN[C@@H]4Cn5c(=O)cnc6ccc(F)c4c65)OC3=O)cc2N1` [Example 80, (S)-7-fluoro-6-{3-[(S)-2-oxo-3-(3-oxo-3,4-dihydro-2H-benzo[1,4]oxazin-6-yl)-oxazolidin-5-yl]-propylamino}-5,6-dihydro-pyrrolo[1,2,3-de]quinoxalin-3-one] and `O=C1COc2ccc(N3C[C@@H](CCCN[C@H]4Cn5c(=O)cnc6ccc(F)c4c65)OC3=O)cc2N1` [Example 104, (R)-7-fluoro-6-{3-[(R)-2-oxo-3-(3-oxo-3,4-dihydro-2H-benzo[1,4]oxazin-6-yl)-oxazolidin-5-yl]-propylamino}-5,6-dihydro-pyrrolo[1,2,3-de]quinoxalin-3-one] cannot be ordered by MIC: at most 0.031 µg/mL for the first, at most 0.031 µg/mL for the second.

`O=C1CSc2ccc(N3C[C@H](CCN[C@@H]4Cn5c(=O)ccc6cccc4c65)OC3=O)cc2N1` [Example 88, (S)-1-{2-[(S)-2-oxo-3-(3-oxo-3,4-dihydro-2H-benzo[1,4]thiazin-6-yl)-oxazolidin-5-yl]-ethylamino}-1,2-dihydro-pyrrolo[3,2,1-ij]quinolin-4-one] and `O=C1CSc2ccc(N3C[C@@H](CCCN[C@H]4Cn5c(=O)ccc6cccc4c65)OC3=O)cc2N1` [Example 109, (R)-1-{3-[(R)-2-oxo-3-(3-oxo-3,4-dihydro-2H-benzo[1,4]thiazin-6-yl)-oxazolidin-5-yl]-propylamino}-1,2-dihydro-pyrrolo[3,2,1-ij]quinolin-4-one] cannot be ordered by MIC: at most 0.031 µg/mL for the first, at most 0.031 µg/mL for the second.

Compared with `COc1nc2ccc(F)c3c2n(c1=O)C[C@@H]3NCCC[C@@H]1CN(c2ccc3c(c2)NC(=O)CO3)C(=O)O1` [Example 111, (R)-7-fluoro-2-methoxy-6-{3-[(R)-2-oxo-3-(3-oxo-3,4-dihydro-2H-benzo[1,4]oxazin-6-yl)-oxazolidin-5-yl]-propylamino}-5,6-dihydro-pyrrolo[1,2,3-de]quinoxalin-3-one], `COc1nc2ccc(F)c3c2n(c1=O)C[C@@H]3NCCC[C@@H]1CN(c2ccc3c(c2)NC(=O)CS3)C(=O)O1` [Example 112, (R)-7-fluoro-2-methoxy-6-{3-[(R)-2-oxo-3-(3-oxo-3,4-dihydro-2H-benzo[1,4]thiazin-6-yl)-oxazolidin-5-yl]-propylamino}-5,6-dihydro-pyrrolo[1,2,3-de]quinoxalin-3-one] is lower in MIC: 0.125 µg/mL (≈ 0.245 µM) for the first, at most 0.031 µg/mL for the second.

Compared with `O=C1CSc2ccc(N3C[C@@H](CCCN[C@@H]4CN5C(=O)CNc6cccc4c65)OC3=O)cc2N1` [Example 114, (S)-6-{3-[(R)-2-oxo-3-(3-oxo-3,4-dihydro-2H-benzo[1,4]thiazin-6-yl)-oxazolidin-5-yl]-propylamino}-1,2,5,6-tetrahydro-pyrrolo[1,2,3-de]quinoxalin-3-one], `O=C1CSc2ccc(N3C[C@H](CCCN[C@H]4Cn5c(=O)ccc6c(CO)ccc4c65)OC3=O)cc2N1` [Example 120, (R)-7-hydroxymethyl-1-{3-[(S)-2-oxo-3-(3-oxo-3,4-dihydro-2H-benzo[1,4]thiazin-6-yl)-oxazolidin-5-yl]-propylamino}-1,2-dihydro-pyrrolo[3,2,1-ij]quinolin-4-one] is higher in MIC: at most 0.031 µg/mL for the first, 0.125 µg/mL (≈ 0.247 µM) for the second.

Compared with `CCOC(=O)c1ccc2c3c1ccc(=O)n3C[C@@H]2NCCC[C@H]1CN(c2ccc3c(c2)NC(=O)CS3)C(=O)O1` [Example 119, (R)-4-oxo-1-{3-[(S)-2-oxo-3-(3-oxo-3,4-dihydro-2H-benzo[1,4]thiazin-6-yl)-oxazolidin-5-yl]-propylamino}-1,2-dihydro-4H-pyrrolo[3,2,1-ij]quinoline-7-carboxylic acid ethyl ester], `Cl.O=C1CSc2ccc(N3C[C@H](CCCN[C@H]4Cn5c(=O)ccc6c(C(=O)O)ccc4c65)OC3=O)cc2N1` [Example 121, (R)-4-oxo-1-{3-[(S)-2-oxo-3-(3-oxo-3,4-dihydro-2H-benzo[1,4]thiazin-6-yl)-oxazolidin-5-yl]-propylamino}-1,2-dihydro-4H-pyrrolo[3,2,1-ij]quinoline-7-carboxylic acid hydrochloride] is higher in MIC: at most 0.031 µg/mL for the first, 0.125 µg/mL for the second.
